The text below walks through data of US20130310344A1, “N-ACYLSULFONAMIDE APOPTOSIS PROMOTERS” (ASTRAZENECA AB, priority 2010, published 2013).

Broadly, the IC50 is the concentration needed to halve the response being measured. Higher therefore signals a need for much substance.

Counter-ions that a name gives are not always drawn.

One assay addresses T1, Bcl-XL (Homo sapiens, UniProt Q07817).
T1 construct: a C-terminal 6×HIS tagged Bcl-XL (aa 1-209); 6xHis (C)
In words: Bcl-XL FP assay (competitive fluorescence polarization binding assay, FITC-Bim BH-3 peptide tracer). Particulars: C-terminal 6×HIS tagged Bcl-XL (aa 1-209), 0.8 nM; 2 nM FITC-Bim peptide tracer. From the text: (§1) Bcl-xL and Bcl-2 FP binding affinity of compound(s) of Formulae (I), (I-a), (I-b), (I-c), (I-d) and/or (I-e) may be determined using a variety of known methods. One such assay is a sensitive and quantitative in vitro binding assay using fluorescence polarization (“FP”) described by Wang, J.-L.; Zhang, Z-J.; Choksi, S.; Sjam. S.; Lu, Z.; Croce, C. M.; Alnemri, E. S.; Komgold, R.; Huang, Z. Cell permeable Bcl-2 binding peptides: a chemical approach to apoptosis induction in tumor cells. Cancer Res. 2000, 60, 1498-1502).
(§2) Additionally, the binding affinity of compound(s) of Formulae (I), (I-a), (I-b), (I-c), (I-d) and/or (I-e) to Bcl-2 protein in vitro was determined by a competitive binding assay based on fluorescence polarization. For example, fluorescence polarization (“FP”) assays may be developed using a c-terminal 6×HIS tagged Bcl-2 (aa 1-204) and a C-terminal 6×HIS tagged Bcl-XL (aa 1-209). […] Dilutions of either Bcl-2 (1.3 nM) or Bcl-XL (0.8 nM) may be added to serial dilutions of antagonist and incubated for one hour prior to the addition of 2 nM of fluorescent peptide tracer (Anaspec, Fremont, Calif.) in the assay buffer. Final assay buffer conditions may be 20 mM HEPES, pH 7.5, 1 mM DTT, 0.005% Tween-20 and 50 mM NaCl. Samples may be read after 20-minute incubation. Fluorescence polarization values may be plotted as a function of the antagonist concentration.
On the technique in general: Fluorescence polarisation rises when a labelled molecule tumbles more slowly, as on binding a larger partner.

The target of a further assay is T2, Bcl-2 (Homo sapiens, UniProt P10415).
T2 construct: a c-terminal 6×HIS tagged Bcl-2 (aa 1-204); 6xHis (C)
T2 sequence (P10415 1-204): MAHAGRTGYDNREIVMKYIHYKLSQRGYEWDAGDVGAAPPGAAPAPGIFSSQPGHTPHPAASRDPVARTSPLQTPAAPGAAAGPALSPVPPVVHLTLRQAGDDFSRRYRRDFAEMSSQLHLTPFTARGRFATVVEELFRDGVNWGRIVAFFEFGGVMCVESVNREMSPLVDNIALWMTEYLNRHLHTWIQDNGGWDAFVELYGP
In words: Bcl-2 FP assay (competitive fluorescence polarization binding assay, FITC-Bim BH-3 peptide tracer). Particulars: c-terminal 6×HIS tagged Bcl-2 (aa 1-204), 1.3 nM; 2 nM FITC-Bim peptide tracer.
Text: as §1, §2

T1 sequence (Q07817 1-209): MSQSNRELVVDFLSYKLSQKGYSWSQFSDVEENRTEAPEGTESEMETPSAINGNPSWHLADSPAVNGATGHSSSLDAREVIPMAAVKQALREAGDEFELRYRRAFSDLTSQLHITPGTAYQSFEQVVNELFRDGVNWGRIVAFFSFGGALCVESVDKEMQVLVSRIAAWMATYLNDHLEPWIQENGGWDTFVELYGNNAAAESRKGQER

As for “4-(4-((R)-(4′-chlorobiphenyl-2-yl)(cyano)methyl)piperidin-1-yl)-N-(4-((R)-4-morpholino-1-(phenylthio)butan-2-ylamino)-3-(trifluoromethylsulfonyl)phenylsulfonyl)benzamide and 4-(4-((S)-(4′-chlorobiphenyl-2-yl)(cyano)methyl)piperidin-1-yl)-N-(4-((R)-4-morpholino-1-(phenylthio)butan-2-ylamino)-3-(trifluoromethylsulfonyl)phenylsulfonyl)benzamide, mixture of diastereomers [Example 17]”, the IC50 at Bcl-XL turned out to be 1 nM.

For the molecule `O=C(NS(=O)(=O)c1ccc(N[C@H](CCN2CCN(CCO)CC2)CSc2ccccc2)c(S(=O)(=O)C(F)(F)F)c1)c1ccc(N2CCC([C@@H](O)c3ccccc3-c3ccc(Cl)cc3)CC2)cc1` [Example 1, 4-(4-((R)-(4′-chlorobiphenyl-2-yl)(hydroxy)methyl)piperidin-1-yl)-N-(4-((R)-4-(4-(2-hydroxyethyl)piperazin-1-yl)-1-(phenylthio)butan-2-ylamino)-3-(trifluoromethylsulfonyl)phenylsulfonyl)benzamide, formic acid salt], the IC50 is below 1 nM on Bcl-2 and 1 nM at Bcl-XL.

Take `CN(C)CC[C@H](CSc1ccccc1)Nc1ccc(S(=O)(=O)NC(=O)c2ccc(N3CCC([C@@H](O)c4ccccc4-c4ccc(Cl)cc4)CC3)cc2)cc1[N+](=O)[O-]` [Example 2, 4-(4-((R)-(4′-chlorobiphenyl-2-yl)(hydroxy)methyl)piperidin-1-yl)-N-(4-((R)-4-(dimethylamino)-1-(phenylthio)butan-2-ylamino)-3-nitrophenylsulfonyl)benzamide]: the IC50 is 0.3 nM at Bcl-2 and 1 nM on Bcl-XL.

On to `CN(CCO)CC[C@H](CSc1ccccc1)Nc1ccc(S(=O)(=O)NC(=O)c2ccc(N3CCC([C@@H](O)c4ccccc4-c4ccc(Cl)cc4)CC3)cc2)cc1S(=O)(=O)C(F)(F)F` [Example 3, 4-(4-((R)-(4′-chlorobiphenyl-2-yl)(hydroxy)methyl)piperidin-1-yl)-N-(4-((R)-4-((2-hydroxyethyl)(methyl)amino)-1-(phenylthio)butan-2-ylamino)-3-(trifluoromethylsulfonyl)phenylsulfonyl)benzamide], for which the IC50 is below 0.3 nM on Bcl-2 and 1 nM at Bcl-XL.

For `CCN(CCO)CC[C@H](CSc1ccccc1)Nc1ccc(S(=O)(=O)NC(=O)c2ccc(N3CCC([C@@H](O)c4ccccc4-c4ccc(Cl)cc4)CC3)cc2)cc1S(=O)(=O)C(F)(F)F` [Example 4, 4-(4-((R)-(4′-chlorobiphenyl-2-yl)(hydroxy)methyl)piperidin-1-yl)-N-(4-((R)-4-(ethyl(2-hydroxyethyl)amino)-1-(phenylthio)butan-2-ylamino)-3-(trifluoromethylsulfonyl)phenylsulfonyl)benzamide], the IC50 turned out to be 0.5 nM on Bcl-2 and 0.8 nM at Bcl-XL.

Regarding `O=C(NS(=O)(=O)c1ccc(N[C@H](CCN(CCO)CCO)CSc2ccccc2)c(S(=O)(=O)C(F)(F)F)c1)c1ccc(N2CCC([C@@H](O)c3ccccc3-c3ccc(Cl)cc3)CC2)cc1` [Example 5, N-(4-((R)-4-(bis(2-hydroxyethyl)amino)-1-(phenylthio)butan-2-ylamino)-3-(trifluoromethylsulfonyl)phenylsulfonyl)-4-(4-((R)-(4′-chlorobiphenyl-2-yl)(hydroxy)methyl)piperidin-1-yl)benzamide, formic acid salt], the IC50 at Bcl-2 was 0.8 nM; at Bcl-XL it was 1 nM.

Consider `O=C(NS(=O)(=O)c1ccc(N[C@H](CCN(CCOP(=O)(O)O)CCOP(=O)(O)O)CSc2ccccc2)c(S(=O)(=O)C(F)(F)F)c1)c1ccc(N2CCC([C@@H](O)c3ccccc3-c3ccc(Cl)cc3)CC2)cc1` [Example 7, 2,2′-((R)-3-(4-(N-(4-(4-((R)-(4′-chlorobiphenyl-2-yl)(hydroxy)methyl)piperidin-1-yl)benzoyl)sulfamoyl)-2-(trifluoromethylsulfonyl)phenylamino)-4-(phenylthio)butylazanediyl)bis(ethane-2,1-diyl)bis(dihydrogen phosphate), hydrochloride salt], for which the IC50 worked out at 2 nM at Bcl-2 and 1 nM at Bcl-XL.

For the molecule `CCN(CCOP(=O)(O)O)CC[C@H](CSc1ccccc1)Nc1ccc(S(=O)(=O)NC(=O)c2ccc(N3CCC([C@@H](O)c4ccccc4-c4ccc(Cl)cc4)CC3)cc2)cc1S(=O)(=O)C(F)(F)F` [Example 8, 2-(((R)-3-(4-(N-(4-(4-((R)-(4′-chlorobiphenyl-2-yl)(hydroxy)methyl)piperidin-1-yl)benzoyl)sulfamoyl)-2-(trifluoromethylsulfonyl)phenylamino)-4-(phenylthio)butyl)(ethyl)amino)ethyl dihydrogen phosphate, hydrochloride salt], the IC50 came out at 0.9 nM at Bcl-2 and 1 nM on Bcl-XL.

Consider `CN(CCOP(=O)(O)O)CC[C@H](CSc1ccccc1)Nc1ccc(S(=O)(=O)NC(=O)c2ccc(N3CCC([C@@H](O)c4ccccc4-c4ccc(Cl)cc4)CC3)cc2)cc1S(=O)(=O)C(F)(F)F` [Example 9, 2-(((R)-3-(4-(N-(4-(4-((R)-(4′-chlorobiphenyl-2-yl)(hydroxy)methyl)piperidin-1-yl)benzoyl)sulfamoyl)-2-(trifluoromethylsulfonyl)phenylamino)-4-(phenylthio)butyl)(methyl)amino)ethyl dihydrogen phosphate, hydrochloride salt], for which the IC50 amounted to 0.9 nM on Bcl-2 and 1 nM on Bcl-XL.

In the case of `O=C(NS(=O)(=O)c1ccc(N[C@H](CCN2CCN(CCOP(=O)(O)O)CC2)CSc2ccccc2)c(S(=O)(=O)C(F)(F)F)c1)c1ccc(N2CCC([C@@H](O)c3ccccc3-c3ccc(Cl)cc3)CC2)cc1` [Example 10, 2-(4-((R)-3-(4-(N-(4-(4-((R)-(4′-chlorobiphenyl-2-yl)(hydroxy)methyl)piperidin-1-yl)benzoyl)sulfamoyl)-2-(trifluoromethylsulfonyl)phenylamino)-4-(phenylthio)butyl)piperazin-1-yl)ethyl dihydrogen phosphate], the IC50 at Bcl-2 is 0.7 nM; on Bcl-XL, 1 nM.

Turning to `CN(CCO)CC[C@H](CSc1ccccc1)Nc1ccc(S(=O)(=O)NC(=O)c2ccc(N3CCC([C@@H](N)c4ccccc4-c4ccc(Cl)cc4)CC3)cc2)cc1S(=O)(=O)C(F)(F)F` [Example 11, 4-(4-((R)-amino(4′-chlorobiphenyl-2-yl)methyl)piperidin-1-yl)-N-(4-((R)-4-((2-hydroxyethyl)(methyl)amino)-1-(phenylthio)butan-2-ylamino)-3-(trifluoromethylsulfonyl)phenylsulfonyl)benzamide, formic acid salt], the IC50 was found to be 4 nM at Bcl-2 and 3 nM at Bcl-XL.

For `CCN(CCO)CC[C@H](CSc1ccccc1)Nc1ccc(S(=O)(=O)NC(=O)c2ccc(N3CCC([C@@H](N)c4ccccc4-c4ccc(Cl)cc4)CC3)cc2)cc1S(=O)(=O)C(F)(F)F` [Example 12, 4-(4-((R)-amino(4′-chlorobiphenyl-2-yl)methyl)piperidin-1-yl)-N-(4-((R)-4-(ethyl(2-hydroxyethyl)amino)-1-(phenylthio)butan-2-ylamino)-3-(trifluoromethylsulfonyl)phenylsulfonyl)benzamide, formic acid salt], the IC50 on Bcl-2 and on Bcl-XL was 3 nM throughout.

In the case of `O=C(NS(=O)(=O)c1ccc(N[C@H](CCN2CCOC[C@H]2CO)CSc2ccccc2)c(S(=O)(=O)C(F)(F)F)c1)c1ccc(N2CCC([C@@H](O)c3ccccc3-c3ccc(Cl)cc3)CC2)cc1` [Example 24, 4-(4-((R)-(4′-chlorobiphenyl-2-yl)(hydroxy)methyl)piperidin-1-yl)-N-(4-((R)-4-((R)-3-(hydroxymethyl)morpholino)-1-(phenylthio)butan-2-ylamino)-3-(trifluoromethylsulfonyl)phenylsulfonyl)benzamide, formic acid salt], the IC50 on Bcl-2 was 0.4 nM.

As for `O=C(NS(=O)(=O)c1ccc(N[C@H](CCN2CCOC[C@@H]2CO)CSc2ccccc2)c(S(=O)(=O)C(F)(F)F)c1)c1ccc(N2CCC([C@@H](O)c3ccccc3-c3ccc(Cl)cc3)CC2)cc1` [Example 25, 4-(4-((R)-(4′-chlorobiphenyl-2-yl)(hydroxy)methyl)piperidin-1-yl)-N-(4-((R)-4-((S)-3-(hydroxymethyl)morpholino)-1-(phenylthio)butan-2-ylamino)-3-(trifluoromethylsulfonyl)phenylsulfonyl)benzamide, hydrochloride salt], the IC50 at Bcl-2 was 0.4 nM.
